In a melting point compilation (Tetko et al.; mined from patent text by program, amines drawn as free bases though some values may be those of a salt):

First: O=C(O)CNC(=O)C(c1ccccc1)c1ccccc1
Second: O=C(NCCC(O)(c1ccccc1)c1ccccc1)c1ccccc1
The melting point of the first is lower: 113 to 115 °C for the first, 145 to 146 °C for the second.

First: CC(CCCOc1ccc(C2=C(c3ccccc3)CCCc3cc(O)ccc32)cc1)S(=O)(=O)Cc1ccco1 (configuration not stated)
Second: Cc1oc(-c2ccccc2)nc1COc1ccc(COc2ccc(C(=O)c3ccccc3)c(O)c2)cc1
The melting point of the first is higher: 168 °C for the first, 160 to 161 °C for the second.

First: CON=C(C#N)C(N)=O
Second: COc1c(F)cc(Br)c(C(=O)O)c1F
The melting point of the first is higher: 170 to 172 °C for the first, 92 to 94 °C for the second.

Compared with `CC(C)NC(=O)CC(=O)C=Cc1ccccc1[N+](=O)[O-]`, `CCCCS(=O)(=O)c1ccccc1C(=O)O` is lower in melting point: 132 to 135 °C for the first, 72.5 to 73.5 °C for the second.

Compared with `COc1cccc(-c2ncc3n2CC(=O)N(C)C3)c1`, `CN1Cc2cccnc2N(c2ccccc2)C1=O` is higher in melting point: 115 to 117 °C for the first, 172 to 173 °C for the second.

Compared with `Cc1c(C#N)ccc([N+](=O)[O-])c1C#N`, `O=c1c2cc(O)ccc2[nH]c2c([N+](=O)[O-])ccc(Cl)c12` is higher in melting point: 122 to 124 °C for the first, over 325 °C for the second.

First: CS(=O)(=O)c1ccc(Oc2ccc(Cl)c(Cl)c2)c(N)c1
Second: COc1ccc(/C=C(\C#N)c2ccc(Cl)c(Cl)c2)cc1OC1CCCC1
The melting point of the first is lower: 119 to 121 °C for the first, 152 to 154 °C for the second.

First: CN(C)C=Nc1ccc(-c2cc3c(Nc4cccc(Cl)c4)ncnc3[nH]2)cc1
Second: CC=Cc1cccc2c(=O)c(C)c(-c3ccc(C(C)C)cc3)oc12
The melting point of the first is higher: over 300 °C for the first, 105 to 107 °C for the second.

First: CN(C(=O)Cc1cccc2[nH]ccc12)C1c2ccccc2CC1N1CCCC1 (configuration not stated)
Second: COC(=O)C(Cc1c[nH]c2ccccc12)NC(=S)c1ccc2c(c1)OCO2 (configuration not stated)
The melting point of the first is higher: 202 to 204 °C for the first, 129 to 130 °C for the second.

First: CC(C)c1cccc(CO)c1NC(=O)CC1c2ccccc2Oc2ccccc21
Second: O=C(Nc1cccc2cc(Br)cnc12)C1c2ccccc2-c2ccccc21
The melting point of the first is lower: 155 to 156 °C for the first, 196 to 198 °C for the second.

First: N#CCc1cc2c(cc1CC#N)OCO2
Second: CCCCCCOc1cc(CC#N)c(OCCCCCC)cc1CC#N
The melting point of the first is higher: 105 to 107 °C for the first, 96 to 97 °C for the second.

First: O=C(Nc1ccc(OCc2ccccn2)nc1)N1CCc2ccc(C(F)(F)F)cc21
Second: CC(C)(Oc1cccc(C(=O)c2ccc(C(F)(F)F)cc2)c1)C(=O)O
The melting point of the first is higher: 178 to 179 °C for the first, 133 °C for the second.

Compared with `O=C(O)c1nc(-c2cc(Oc3ccc(Cl)cc3Cl)c(O)cc2Cl)no1`, `Clc1ccc(-n2c(Cl)nc3ccccc32)c(Cl)c1` is lower in melting point: 115 °C for the first, 80 to 83 °C for the second.

First: C#CCNc1nnc(-c2ccccc2)cc1C
Second: CC(=O)Nc1c(C(N)=O)nnn1Cc1ccccc1Cl
The melting point of the first is lower: 101 °C for the first, 140 to 142 °C for the second.

Compared with `COc1ccc(N2C(=O)c3ccc(Cl)cc3C2CC(=O)N2CCC3(CC2)OCCO3)cc1` (configuration not stated), `COc1ccc(CN2Cc3cncn3C(c3ccc(-c4ccc(Cl)cc4)cc3)C2=O)cc1` (configuration not stated) is higher in melting point: 156 to 157 °C for the first, 270 to 273 °C for the second.

First: O=C(O)c1cc(OCc2ccccc2)c(Cc2ccccc2)c(S(=O)(=O)Cl)c1
Second: CCC(c1ccccc1)(c1ccccc1)c1ccnc(C(=O)O)c1
The melting point of the first is lower: 164 to 166 °C for the first, 191 to 193 °C for the second.

Compared with `CC(C)(C)c1cc(SCCc2n[nH]c(=O)o2)cc(C(C)(C)C)c1O`, `COc1cc(-c2ccc3n[nH]c(=O)n3n2)cc(OC)c1OC` is higher in melting point: 86 to 87.5 °C for the first, 289 to 290 °C for the second.

First: CC(=O)NCCc1c[nH]c2ccc(OC(=O)Oc3ccc([N+](=O)[O-])cc3)cc12
Second: CC(C)(C)OC(=O)Oc1ccc(C(=O)c2ccc(OC(=O)OC(C)(C)C)cc2)cc1
The melting point of the first is higher: 153 to 156 °C for the first, 141 to 143 °C for the second.

First: Nc1cc(-n2ncc(Cl)c(Cl)c2=O)c(F)cc1Cl
Second: CN1CCN(c2ncc(-c3cc(Cl)cc(Cl)c3Cl)c(N)n2)CC1
The melting point of the first is higher: 186 °C for the first, 162 to 164 °C for the second.

First: CCOC(=O)N1CCC(c2cc3cc(OC)cc(Br)c3o2)CC1
Second: COc1ccc(OC)c(C=CCN2CCc3nc(N)sc3CC2)c1
The melting point of the first is lower: 85 °C for the first, 112 to 115 °C for the second.

First: CON(C(=O)C1=C(O)C(=O)N(C)C1)C(C)c1ccc(F)cc1 (configuration not stated)
Second: CONC(=O)c1cc(C(=O)OC)c2cc(Cc3ccc(F)cc3)cnc2c1O
The melting point of the first is lower: 136 to 138 °C for the first, 186 to 188 °C for the second.

First: O=C(O)CNC(=O)NCCCCC1CCSS1 (configuration not stated)
Second: NC(=O)CCNc1ccc([N+](=O)[O-])cc1OCCO
The melting point of the first is lower: 95 to 96 °C for the first, 184 °C for the second.

Compared with `CCCCC(CC)C(=O)Nc1ccc2ccn(Cc3ccc(C(=O)CS(=O)(=O)c4ccccc4)cc3OC)c2c1` (configuration not stated), `COc1ccccc1CNC(=O)c1ccc2nc(NCc3ccccc3OC)ccc2c1` is lower in melting point: 131 to 133 °C for the first, 108 °C for the second.

`CC(C)CCC1(c2ccccc2)CC(O)=C(Sc2ccccc2C(=O)O)C(=O)O1` (configuration not stated) and `COC(=O)c1ccccc1Sc1cc(C=O)ccc1OC` cannot be ordered by melting point: 99 to 101 °C for the first, 99 to 104 °C for the second.

First: CC(=O)ON=C(N)c1ccc(C(=O)NCCCNC(=O)[C@@H]2CCCN2S(=O)(=O)c2ccc(Cl)c(COc3cccn4cc(C)nc34)c2Cl)cc1
Second: COc1cccc([C@H]2O[C@H](CC(=O)Nc3cccc(C(=O)O)c3C)C(=O)N(CC(C)(C)COC(C)=O)c3ccc(Cl)cc32)c1OC
The melting point of the first is lower: 105 to 107 °C for the first, 139 to 142 °C for the second.

First: Cc1ccc2c(c1)NC(=S)C2=O
Second: O=C1CSC(=S)N1c1ccc(Cl)c(Cl)c1
The melting point of the first is higher: 246 °C for the first, 176 to 178 °C for the second.

First: O=c1oc2c(c(=O)n1C1CCCCCCC1)CCC2
Second: CCOC(=O)C1CCCCCCCC(=O)N1 (configuration not stated)
The melting point of the first is lower: 48 to 51 °C for the first, 101 to 103 °C for the second.

Compared with `Cc1nc2ncc(C(=O)NCc3ccc(Cl)cc3)c(O)c2cc1Br`, `Cc1cc(=O)n2nc(SCc3ccc(Cl)cc3)sc2n1` is lower in melting point: 269 to 270 °C for the first, 138 to 140 °C for the second.

First: CON1CCC2(CC1)C(OCc1ccccc1)=C(c1c(C)cc(C)cc1C)C(=O)N2CC1CC1
Second: CCOc1c(N2CCC(Oc3ccc(CC(=O)N4CCN(c5ccccc5C)CC4C(N)=O)c(OC)c3)CC2)c(=O)c1=O (configuration not stated)
The melting point of the first is lower: 119 to 121 °C for the first, 155 to 157 °C for the second.

First: CC(=O)c1c(C)c(NC(=O)NC(C)(C)C)c(C)c2c1OCC2c1ccc(C(C)C)cc1 (configuration not stated)
Second: COC(=O)c1nc(-c2ccc(F)c(C)c2F)cc(NC(C)=O)c1Cl
The melting point of the first is higher: 207 to 208 °C for the first, 152 to 153 °C for the second.

First: O=Cc1ccc(OCc2cn(C(c3ccccc3)(c3ccccc3)c3ccccc3)cn2)cc1
Second: Nc1ccc(S(=O)(=O)Nn2cc(-c3ccccc3)c3ccccc32)cc1
The melting point of the first is higher: 181 to 182 °C for the first, 176 to 177 °C for the second.

Compared with `Cc1cn2nc(Cl)ccc2n1`, `CCCC(C)(C)C(O)C(c1cccc(Cl)c1)n1cnc(C)c1` (configuration not stated) is lower in melting point: 131 °C for the first, 121 to 122 °C for the second.

Compared with `CNc1nc2ccn(Cc3ccc(F)cc3)cc-2n1`, `CCc1nc2c(OCc3ccc(OC)cc3)cccc2[nH]1` is lower in melting point: 210 °C for the first, 73.8 to 77.9 °C for the second.

Compared with `Oc1ccccc1Nc1cc[nH]n1`, `O=c1c2ccccc2sc2c(O)ccc(Cl)c12` is higher in melting point: 163 to 164 °C for the first, 260 to 265 °C for the second.

Compared with `Nc1nc2c(ncn2OC(CO)COCP(=O)(O)O)c(=O)[nH]1` (configuration not stated), `CCC=CCn1c(=O)sc2c(=O)[nH]c(N)nc21` is lower in melting point: over 300 °C for the first, 240 to 243 °C for the second.

First: CN(C)CCCC(=O)OC[C@@H]1CC(c2ccc(-c3ccc(N4C[C@H](Cn5ccnn5)OC4=O)cc3F)cn2)=NO1
Second: COc1cc(N2CCN(C)CC2)ccc1-c1nc2c(N[C@H]3[C@@H](C(N)=O)[C@@H]4C=C[C@H]3C4)ccnc2[nH]1
The melting point of the first is lower: 148 °C for the first, 185 to 195 °C for the second.

First: O=c1ccc(-c2ccc(Cl)c(C(F)(F)F)c2)n[nH]1
Second: COC(=O)c1cc2cc(OC(F)(F)F)ccc2[nH]1
The melting point of the first is higher: 249 to 251 °C for the first, 129 °C for the second.

Compared with `O=c1[nH]c2cc(Cl)ccc2c(O)c1-n1cccn1`, `OC(c1cccnc1)c1ccc(Cl)cc1Cl` (configuration not stated) is lower in melting point: 310 °C for the first, 108 to 111 °C for the second.

Compared with `Cc1c(SCCCn2ccnc2)ccnc1CSc1ccncc1`, `CCCCn1c(=O)c(=O)[nH]c2c3ccccc3ccc21` is higher in melting point: 117 to 119 °C for the first, 269 °C for the second.

First: c1ccc(Oc2ccc3nnn(Cc4ccc5ncccc5c4)c3n2)cc1
Second: Cc1oc(-c2ccccc2)nc1COc1ccc(CON=C(CCC(=O)O)c2ccco2)cc1
The melting point of the first is higher: 225 to 227 °C for the first, 124 to 125 °C for the second.

First: Cc1cc(O)ccc1-n1cc(C(=O)O)c(=O)cc1C=NN1CCOCC1
Second: COc1cccc(CN2CCc3cc(O)ccc3C2)c1OC
The melting point of the first is higher: 267 to 268 °C for the first, 111 to 115 °C for the second.

Compared with `CCCCCCCCCCCCCCCCSCC(CNS(=O)(=O)CCCI)NC(C)=O` (configuration not stated), `COCC1(CCCCCCCCCCCCC2(C(=O)NS(C)(=O)=O)CC2)CC1` is lower in melting point: 75 to 76 °C for the first, 44.6 to 45.3 °C for the second.

Compared with `Cc1nc2cc(C34CC5CC(CC(C5)C3)C4)cc(-c3cccc(C=C4SC(=S)NC4=O)c3)c2o1`, `CC(C)Cc1ccc(CCc2cc3c(s2)NC(=S)C(C)N=C3c2ccccc2Cl)cc1` (configuration not stated) is lower in melting point: 310 °C for the first, 188 to 191 °C for the second.

First: NC(=O)Cc1c(Cl)cnc2c(NC(=O)c3c(Cl)cccc3Cl)cccc12
Second: COC(=O)c1ccc(-c2nc(-c3ccc(C(F)(F)F)cc3)no2)c(NC(=O)C(F)(F)F)c1
The melting point of the first is higher: over 300 °C for the first, 188 to 189 °C for the second.

First: COC(=O)c1cccc2cc(C)[nH]c12
Second: CCOc1ccccc1C1OC(=O)NC1=O (configuration not stated)
The melting point of the first is higher: 170 to 173 °C for the first, 165 to 167 °C for the second.

Compared with `CCCCCCSc1ncnc2c1ncn2C1CC(F)C(CO)O1` (configuration not stated), `O=C(CCCCCBr)c1cc2c3c(c1)CCN3C(=O)CC2` is higher in melting point: 46 to 49 °C for the first, 97 to 98 °C for the second.

Compared with `C=C(C)CC1(OC=C(C)C)CC=C(C)C(NC=O)=C1C` (configuration not stated), `CCc1nnc2c(N(CC)CC)nc3ccc(OC)cc3n12` is higher in melting point: 109 °C for the first, 135 to 138 °C for the second.

First: CSC(=C[N+](=O)[O-])NCCCn1cc(C2=C(c3cn(C)c4ccccc34)C(=O)NC2=O)c2ccccc21
Second: O=C1c2c(O)ccc(O)c2C(=O)c2c(NCCN3CCCCC3CO)ccc(NCCN3CCCCC3CO)c21 (configuration not stated)
The melting point of the first is lower: 144 to 146 °C for the first, 208 to 210 °C for the second.

First: CNC(=O)N1CC(Oc2ccc(Cl)cc2)C1
Second: Nc1ncnc2c1c(-c1ccc(Oc3ccccc3O)cc1)cn2C1CCCC1
The melting point of the first is higher: 144 to 145 °C for the first, 107 to 109 °C for the second.

Compared with `Brc1ccc(-c2ccc(-c3ccc(Br)o3)cc2)o1`, `Nc1nn(-c2ccccc2)cc1CO` is lower in melting point: 155 to 157 °C for the first, 127 to 128 °C for the second.

First: CC(O)C1CCC2C3C=CC4=CC(=O)C5OC5C4(C)C3CCC12C (configuration not stated)
Second: Cc1ccc(C#N)nc1
The melting point of the first is higher: 206 to 207 °C for the first, 72 to 74 °C for the second.
